Data: paper PMC7118210 (Frontiers in Pharmacology, 2020)

How the values were obtained:
[1] = Metabolites in rat kidney microsomes (system III-rat); format: in vitro ADME, Sprague-Dawley rat
Procedure: (§1) Then, NADPH-B (10 μl) was added and incubated for 2 h. […] Then, UDPGA (50 μl) was added and incubated for 2 h. […] Then, UDPGA (50 μl) was added and incubated for 2 h. In addition, the naringenin solution (1 mM, 10 μl) was evaluated in rat systems I, II, and III as above.
The incubated solution (500 μl) of systems I-rat, II-rat, III-rat, I-human, and II-human were extracted with ethyl acetate (500 μl) for at least 3 min by vortexing and centrifuged for 10 min at 13,000 rpm and 4°C. The extraction process described above was performed twice and all supernatants were transferred into centrifuge tubes, dried with N2, and dissolved with methanol-water (1:1, v/v). All samples were injected into a UPLC/Q-TOF-MS system consisting of a Waters Acquity ultra performance liquid chromatography (UPLC) coupled with a Micromass micro™ quadrupole time-of-flight mass spectrometry (Q-TOF-MS) system (Waters Corp., Milford, MA, USA), equipped with an electrospray ionization source, and controlled by the MassLynx (v. 4.1) software. Separation was performed on a Waters Acquity UPLC BEH C18 column (50 mm × 2.1 mm, 1.7 μm) at 40°C. […] Compounds were detected with accurate mass using leucine enkephalin for mass correction at 554.2615 (m/z) in negative ionization mode.

[2] = Metabolites in human liver microsomes (systems I-human, II-human); format: in vitro ADME
Procedure: Then, NADPH-B (10 μl) was added and the mixed solution incubated for 2 h. […] Next, UDPGA (50 μl) was added and the mixed solution incubated for 2 h. In addition, the naringenin solution (1 mM, 10 μl) was evaluated in human systems I and II as above.
(§2) The incubated solution (500 μl) of systems I-rat, II-rat, III-rat, I-human, and II-human were extracted with ethyl acetate (500 μl) for at least 3 min by vortexing and centrifuged for 10 min at 13,000 rpm and 4°C. The extraction process described above was performed twice and all supernatants were transferred into centrifuge tubes, dried with N2, and dissolved with methanol-water (1:1, v/v). All samples were injected into a UPLC/Q-TOF-MS system consisting of a Waters Acquity ultra performance liquid chromatography (UPLC) coupled with a Micromass micro™ quadrupole time-of-flight mass spectrometry (Q-TOF-MS) system (Waters Corp., Milford, MA, USA), equipped with an electrospray ionization source, and controlled by the MassLynx (v. 4.1) software. Separation was performed on a Waters Acquity UPLC BEH C18 column (50 mm × 2.1 mm, 1.7 μm) at 40°C. The mobile phase consisted of 0.1% formic acid (v/v) in water (A) and methanol (B) using a linear gradient of 95% to 60% A (0–25 min), 60% to 40% A (25–35 min), 40% to 10% A (35–40 min), 10% A (40–43 min), 10% to 95% A (43–44 min), and 95% A (44–45 min). The injection volume was 5 μl with flow rate of 0.2 ml min^-1. The Q-TOF-MS worked in a full scan mode (100–1,200 m/z), selection ion mode, and product ion mode, in negative ion mode, respectively. The conditions were as follows: capillary voltage 3,000 V, sample cone voltage 30 V, extraction cone voltage 2.0 V, source temperature 100°C, desolvation temperature 350°C, cone gas (N2) flow rate of 40 L/h, desolvation gas (N2) flow rate of 700 L/h, low collision energy 6.0 eV, and high collision energy 20–80 eV. Compounds were detected with accurate mass using leucine enkephalin for mass correction at 554.2615 (m/z) in negative ionization mode.

[3] = Stability of naringin and naringenin in human feces with active enzymes; format: in vitro ADME; details: human feces in normal saline, 37°C for 12 h (over night)
Procedure: Next, 9-fold normal saline, instead of ninefold methanol-normal saline (2:1, v/v), was added to maintain enzyme activity in the feces. […] These samples were maintained at 37°C for 12 h.

[4] = Metabolites in rat liver microsomes (systems I-rat, II-rat); format: in vitro ADME, Sprague-Dawley rat
Procedure: as §1, §2

[5] = set-up: method as in Li P. et al., 2013; details: Sprague-Dawley rats, 16 g kg^-1; ref Li P. et al., 2013; cited from earlier work
CYP 1A2 = molecular target: T1, CYP 1A2 (Homo sapiens, UniProt P05177); assay: CYP enzyme pathway, human liver microsomes with α-naphthoflavone (system III-human); format: in vitro ADME; details: CYP1A2; of six metabolites measured in system III-human
T1 construct: human liver microsomes (2.25 μl); tissue RILD Research Institute for Live Diseases (Shanghai, China) Co.Ltd; host or cells: human liver microsomes, 10-donor pooled
T1 sequence (P05177 whole entry): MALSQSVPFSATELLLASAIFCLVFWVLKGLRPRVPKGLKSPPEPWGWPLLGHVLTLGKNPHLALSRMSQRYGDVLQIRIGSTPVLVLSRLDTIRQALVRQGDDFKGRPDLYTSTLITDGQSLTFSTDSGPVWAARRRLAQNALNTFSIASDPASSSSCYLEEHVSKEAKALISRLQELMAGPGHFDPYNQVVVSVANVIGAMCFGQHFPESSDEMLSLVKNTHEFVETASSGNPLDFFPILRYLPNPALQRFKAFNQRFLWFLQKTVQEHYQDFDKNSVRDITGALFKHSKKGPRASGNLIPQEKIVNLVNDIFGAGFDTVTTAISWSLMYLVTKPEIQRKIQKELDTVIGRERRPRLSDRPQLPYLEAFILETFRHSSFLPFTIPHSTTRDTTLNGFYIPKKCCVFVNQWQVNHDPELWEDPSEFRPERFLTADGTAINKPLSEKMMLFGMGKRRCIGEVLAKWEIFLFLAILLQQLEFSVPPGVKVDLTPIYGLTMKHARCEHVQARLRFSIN
Procedure: (§3) Five single inhibitor working solutions were separately added. Their concentrations were as follows: α-naphthoflavone (0.04 mM) for CYP 1A2, sulfaphenazole (0.8 mM) for CYP 2C9, (+/-)-N-3-benzylnirvanol (0.8 mM) for CYP 2C19, quinidine (0.08 mM) for CYP 2D6, and ketoconazole (0.04 mM) for CYP 3A4/5. All protein concentrations were 0.15 mg ml^-1 in the incubation system, except 0.3 mg ml^-1 for the sulfaphenazole working solution. Then, NADPH (10 mM, 30 μl) was added and the mixed solution incubated for 45 min. Finally, cold acetonitrile (600 μl, containing 100 ng ml^-1 flufenamic acid) was added to every tube, mixed by vortexing, centrifuged for 30 min at 14,000 g and 4°C, and the supernatants transferred into centrifuge tubes and injected into the UHPLC/MS/MS system as described above. Incubations were run in triplicate experiments.
(§4) To analyze compounds in incubation system III-human, a Luna C18 column (Phenomenex Inc., Torrance, CA, USA; 2.0 mm × 50 mm, 5 μm) was used at 40°C. The mobile phase consisted of 0.1% formic acid (v/v) in water (A) and 0.1% formic acid in acetonitrile (B). […] The injection volume was 10 μl with flow rate of 0.2 ml min^-1. The compounds were detected by multiple reaction monitoring in the negative ion electrospray mode.

CYP 2C9 = molecular target: T2, CYP 2C9 (Homo sapiens, UniProt P11712); assay: CYP enzyme pathway, human liver microsomes with sulfaphenazole (system III-human); format: in vitro ADME; details: CYP2C9, major metabolic enzyme; of six metabolites measured in system III-human
T2 construct: human liver microsomes (2.25 μl); tissue RILD Research Institute for Live Diseases (Shanghai, China) Co.Ltd; host or cells: human liver microsomes, 10-donor pooled
T2 sequence (P11712 whole entry): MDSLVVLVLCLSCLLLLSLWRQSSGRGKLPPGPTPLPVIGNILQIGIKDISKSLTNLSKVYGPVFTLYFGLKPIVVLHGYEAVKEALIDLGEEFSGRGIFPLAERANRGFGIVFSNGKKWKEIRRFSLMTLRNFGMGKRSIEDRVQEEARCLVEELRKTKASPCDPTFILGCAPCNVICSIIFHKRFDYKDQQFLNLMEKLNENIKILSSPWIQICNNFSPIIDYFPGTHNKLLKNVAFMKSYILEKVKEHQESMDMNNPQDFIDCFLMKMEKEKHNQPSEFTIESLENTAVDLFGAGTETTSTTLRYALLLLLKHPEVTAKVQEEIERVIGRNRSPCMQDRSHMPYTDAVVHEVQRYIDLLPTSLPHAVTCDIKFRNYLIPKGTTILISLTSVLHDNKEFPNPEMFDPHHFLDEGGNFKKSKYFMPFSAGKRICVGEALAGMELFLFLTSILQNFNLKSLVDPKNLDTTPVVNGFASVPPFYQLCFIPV
Procedure: as §3, §4

CYP 3A4/5 = assay: CYP enzyme pathway, human liver microsomes with ketoconazole (system III-human); format: in vitro ADME; details: CYP3A4/5; of six metabolites measured in system III-human
Procedure: as §3, §4

[6] = set-up: method as in Liu M. et al., 2011; Li et al., 2014; details: Sprague-Dawley rats, 1,250 mg kg^-1 day^-1 for 184 days; ref Liu M. et al., 2011; Li et al., 2014; cited from earlier work

SMILES | found in rat kidney microsomes, incubation of G/S [1] | found in human liver microsomes, incubation of naringenin (S) [2] | amount detected in feces relative to the amount added [3] | found in rat liver microsomes, incubation of naringenin (S) [4] | toxicity after a single p.o. bolus dose [5] | metabolites the enzyme contributes to (CYP 1A2) | metabolites the enzyme is responsible for (CYP 2C9) | metabolites the enzyme contributes to (CYP 3A4/5) | adverse effects in toxicity study [6]
O=C1C[C@@H](c2ccc(O)cc2)Oc2cc(O)cc(O)c21 [naringenin, Naringenin] | + | + | less than 20% | + | – | – | – | – | –
C[C@@H]1O[C@@H](O[C@H]2[C@H](Oc3cc(O)c4c(c3)O[C@H](c3ccc(O)cc3)CC4=O)O[C@H](CO)[C@@H](O)[C@@H]2O)[C@H](O)[C@H](O)[C@H]1O [naringin, Naringin] | – | – | – | – | no apparent toxicity | one metabolite | six metabolites | two metabolites | no adverse effects
